Assay [1] concerns human breast cancer MDA-MB-231 cells. The experiment in a line: Inhibition of CXCL12-induced breast cancer cell migration (Transwell). Type of assay: cell-based. Conditions: 10 nM of the antagonist; 100 nM CXCL12; 15 hours. The procedure: Transwell filter (polycarbonate filter, 8 μm diameter, Costar Company) was treated at 37° C. for 6 hours in 10 μg/mL fibronectin solution and air-dried. 100 nM of CXCL12 (R&D System Company) and 600 μL/well of buffer-A (0.1% bovine serum albumin, DMEM (GibcoBRL) containing 12 mM HEPES) containing the test compound were added to the lower chamber of the Transwell. The test compound and human breast cancer MDA-MB-231 cells (purchased from American Tissue Culture Collection), and 100 μL/well of buffer A containing 2×10^6 cells/mL were added to the upper chamber. […] Cutting off the filter part, adding 0.1 M sodium citrate/50% ethanol solution, and eluting crystal violet absorption at 550 nm was measured. […]
After 15 hours' incubation at 37° C. in 5% CO2 incubator, the upper surface of the filter was wiped and the cell was removed, and then the cell on the lower surface of the filter was fixed and stained with 25% methanol solution containing 0.5% crystal violet (Wako Pure Chemical Ind.), washed by distilled water and air-dried. Cutting off the filter part, adding 0.1 M sodium citrate/50% ethanol solution, and eluting crystal violet absorption at 550 nm was measured. […]

Assay [2] deals with Jurkat human T lymphocyte cell lines. The following applies: read-out: IC50 value, inhibition of SDF-1α-induced Jurkat cell migration; SDF-1α 1 ng/mL; 4 hours.
Protocol: RPMI-1640 and fetal calf serum (FCS) was purchased from BioWhittaker, penicillin-streptomycin solution, RPMI-1640 (without phenol red) and HEPES from Invitrogen, BSA from Sigma, and, human SDF-1α (CXCL12) from Genzyme. Jurkat human T lymphocyte cell lines were purchased from ATCC and incubated in RPMI-1640 10% FCS.
Using 24-wells Transwell (Costar, polycarbonate membrane, pore size 5 μm), migrating reaction was performed. 600 μL of SDF-1α (final concentration 1 ng/mL) was added to the lower layer of Transwell, 5×10^5 cells (200 μL) was added to the insert, and was reacted at 37° C. for 4 hours. The cells were pre-incubated with drugs at 37° C. for 30 minutes. The migrating reaction was made in RPMI-1640 culture media containing 20 mmol/L HEPES, 0.5% BSA. The cells migrated to the lower layer were recovered, and the number of the cells was counted by Coulter Counter. The inhibitory rate (%) against the migration by the drug of each concentration was calculated by the following formula, and IC50 value was calculated from such inhibitory rate.
In assay [3] the test system is mouse collagen-induced arthritis. The experiment in a line: Mouse collagen-induced arthritis. In kind it is in vivo, DBA/1JN mouse. Conditions: 120 μg/day, Alzet osmotic pump, 2 weeks. The procedure:
FK-506 was purified by a known method (Kino T. et al., J. Antibiot., 1987 40(9): 1249-55). […] For 2 weeks after the additional immunization, body weights and hindlimb thickness were measured and arthritis scoring was made. Arthritis scores were scored at 0-3 points of each limb, and evaluated by the total of the same (12 points being the full points; 0, normal; 1, mild swelling or swelling of a single digit; 2, moderate swelling or swelling of plural digits; 3, severe swelling). Two weeks after the immunization, four limbs and sera were picked. After coat blocking bovine type II collagen (10 μg/mL PBS solution) on the immunoplate, 100 μL of 1000 times diluted mouse serum was added, and kept at room temperature for 2 hours. After cleansing, anti-mouse IgG2a antibody (1000 times dilution) was added. After cleansing, TMB was added, kept at room temperature for 30 minutes, H2SO4 of equal amount was added, and A450 nm was measured. Indomethacin (1 mg/kg), methotrexate (3 mg/kg) and FK-506 (10 mg/kg) were suspended to 0.5% methyl cellulose, and orally administered every day for 2 weeks from the day of the additional immunization at the dose of 0.1 mL/10 g body weight. 0.5% methyl cellulose solution of the equal dose was orally administered to the control group. 4Fbenzoyl-TN14003 was dissolved to PBS, and continuously administered using Alzet osmotic pumps (Alza, 0.5 μL/hr 2 weeks). The osmotic pumps were implanted intradermally to the backs of the mice under ether anesthesia on the day before the additional immunization. As the control, pumps injected with PBS were similarly implanted. Evaluation of each drug was made for the value obtained 2 weeks after the additional immunization. Data were expressed as mean value±standard margin of error (n=8-12). Comparison between 2 groups was made by Student's t-test, p≦0.05 was valued as significant. Multiple comparison was made by Dunnett test, p≦0.05 was valued as significant.

The next assay deals with mouse splenocytes. The following applies: read-out: IC50 value, inhibition of SDF-1-induced migration of mouse splenocytes; SDF-1α 100 ng/mL; 2.5 hours.

Bridge positions count the residues as written; N and C are the ends. Square brackets hold non-standard residues; d marks the D form. Peptide text beside a SMILES is read from it. * marks the point of attachment. 2Nal = N[C@@H](Cc1ccc2ccccc2c1)C(=O)O; Benzoyl(4-F) = O=C(c1ccc(F)cc1)*; Cit = NC(=O)NCCC[C@H](N)C(=O)O

Protocol for mouse splenocytes: Spleens were isolated from BALB/c mice (male, Charles River Japan, Inc.), converted to single cell suspensions, and splenocytes were prepared by crushing red blood cells.
SDF-1α (Peprotech, final concentration 100 ng/mL) was added to the lower layer of Transwell (pore size 5 μm), 1×10^6/well of the cells (100 μL) were added to the insert, and reacted at 37° C. for 2.5 hours. The cells were incubated with the drug at 37° C. for 30 minutes. Migrating reaction was made in the RPMI-1640 culture media containing 20 mmol/L HEPES, 0.5% BSA. The number of the cells migrated to the lower layer was counted by Coulter Counter. Similarly to the preceding clause, the inhibitory rate against the migration by the drug of each concentration and IC50 value were calculated.

As for `N=C(N)NCCC[C@H](NC(=O)[C@@H]1CSSC[C@H](NC(=O)[C@H](Cc2ccc3ccccc3c2)NC(=O)[C@H](CCCNC(=N)N)NC(=O)[C@H](CCCNC(=N)N)NC(=O)c2ccc(F)cc2)C(=O)N[C@@H](Cc2ccc(O)cc2)C(=O)N[C@@H](CCCNC(N)=O)C(=O)N[C@@H](CCCCN)C(=O)N[C@H](CCCCN)C(=O)N2CCC[C@H]2C(=O)N[C@@H](Cc2ccc(O)cc2)C(=O)N[C@@H](CCCNC(=N)N)C(=O)N[C@@H](CCCNC(N)=O)C(=O)N1)C(N)=O` [4F-benzoyl-TN14003, 4F-benzoyl-Arg-Arg-Nal-Cys-Tyr-Cit-Lys-DLys-Pro-Tyr-Arg-Cit-Cys-Arg-NH2] ({Benzoyl(4-F)}-RR[2Nal]CY[Cit]K[dK]PYR[Cit]CR-NH2; disulfide 4-13), the “CXCL12-induced migration of MDA-MB-231 cells” value in assay [1] is listed as “inhibited”. Besides, the IC50 in assay [2] is 650 pM. For the same compound, in assay [3], the arthritis score entry was “significant inhibitory activity”, the body weight loss entry is listed as “significant inhibitory activity”, the hindlimb swelling result is recorded as “significant inhibitory activity” and the “increase of anti-type II collagen specific IgG2a antibody value” is given as “inhibitory tendency”. Also, the IC50 in the assay on mouse splenocytes was found to be 540 pM.

(Values after US8017585B2, “CXCR4 antagonist and use thereof” (priority 2002, dated 2011).)
